This assay deals with P. aeruginosa. Description: Antibacterial activity (MIC) against P. aeruginosa. It is filed as cell-based, Pseudomonas aeruginosa. Here is the method: In this example, the antibacterial activity of exemplary multifunctional copolymeric nanoparticles against Gram-negative and Gram-positive strains, including P. aeruginosa, E. coli, S. aureus, and Enterococcus, were investigated based on their minimum bactericidal concentration (MBC) and minimum inhibitory concentration (MIC). Reaction time for synthesis of exemplary multifunctional copolymeric nanoparticles (AX) was varied from 1 hour to 72 hours to fine-tune the antibacterial activity of the exemplary multifunctional copolymeric nanoparticles. FIG. 11 illustrates a chart 1100 for the antibacterial activity of exemplary multifunctional copolymeric nanoparticles synthesized in different reaction times (1, 3, 8, 24, and 72 hours), consistent with one or more exemplary embodiments of the present disclosure.

Where only a bound is given, the exact number is not on record here.

The MIC is the smallest concentration in the dilution series that meets the test's criterion for growth inhibition. A low value points to inhibition by little substance. In the case of gentamicin, the MIC was more than 64 µg/mL.

Source of the values: US20240102051A1, “MULTIFUNCTIONAL COPOLYMERIC NANOPARTICLE” (Iran University of Medical Sciences, priority 2021, published 2024).
